Experimental data from patent publication US20050101595A1, “N-containing cycloalkyl-substituted amino-thiazole derivatives and pharmaceutical compositions for inhibiting cell proliferation and methods for their use” (PFIZER INC., priority 2003, published 2005).
Structures can show the parent of a compound that is named as a salt. Where two headings read alike, the source gives them in different places.

Experiments:
[1] = target: human CDK4 and genetically truncated (1-264) cyclin D3 (Homo sapiens, UniProt P11802); assay: Inhibition of CDK4/Cyclin D Retinoblastoma Kinase Activity; assay type: biochemical; settings: for Ki: apparent Ki, CDK4/truncated cyclin D3, Rb fragment substrate, 25 μM ATP
How it was run: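 Human CDK4/truncated cyclin D3 (1-264) complex from baculovirus-infected insect cells, 5 nM, phosphorylating Rb fragment (residues 386-928, His-tagged) with 25 μM [32/33P]ATP in HEPES pH 7.4, MgCl2, 2% DMSO at 30° C. for 20 min (60 min for tight binders). Filter-captured radioactivity by phosphorimager; apparent Ki from competitive or tight-binding fits.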

CDK2/Cyclin A = CDK2/Cyclin A (Homo sapiens, UniProt P24941); assay: Inhibition of CDK2/Cyclin A Retinoblastoma Kinase Activity; assay type: biochemical; settings: for Ki: apparent Ki, CDK2/proteolyzed cyclin A, Rb fragment substrate, 25 μM ATP
How it was run: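 Baculovirus-expressed CDK2 complexed with proteolyzed cyclin A (10 or 19 nM), Rb fragment substrate, 25 μM [32P/33P]ATP, HEPES pH 7.4, 30 °C for 60 or 75 min under initial-rate conditions. Filter capture and phosphorimager readout; apparent Ki fitted to competitive or tight-binding competitive inhibition.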

HCT-116 cell line = assay: Inhibition of cell growth, tetrazolium salt (MTT) assay; assay type: cell-based; settings: for HCT-116 % Inhibition at 0.25 μM: 0.25 μM compound; for IC50: Homo sapiens, HCT-116, 120 h, MTT, three to five days, read-out: HCT-116 IC50
How it was run: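 Growth inhibition by MTT reduction at 540 nm (0.2 mg/mL, 4 h at 37° C, formazan dissolved in DMSO), normalized to cells given only 0.5% v/v DMSO. HCT-116 cultures in McCoy's 5A were dosed 4 h post-plating and kept three to five days at 37° C, 5% CO2.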

[2] = 0.1 μM compound, HCT-116, Table 4
[3] = 0.1 μM compound, HCT-116, Table 3

Chain of human CDK4 and genetically truncated (1-264) cyclin D3 (P11802 whole entry, the tested form may be a part): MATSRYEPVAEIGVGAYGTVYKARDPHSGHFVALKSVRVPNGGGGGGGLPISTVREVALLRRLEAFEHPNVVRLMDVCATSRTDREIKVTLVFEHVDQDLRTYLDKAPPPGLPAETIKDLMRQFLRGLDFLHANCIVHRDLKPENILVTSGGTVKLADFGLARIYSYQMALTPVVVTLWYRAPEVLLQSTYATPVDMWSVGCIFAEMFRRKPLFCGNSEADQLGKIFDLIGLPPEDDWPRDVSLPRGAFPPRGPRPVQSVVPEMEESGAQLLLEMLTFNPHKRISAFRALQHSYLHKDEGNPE
Chain of human CDK4 and genetically truncated (1-264) cyclin D3 (P30281 1-264 partner): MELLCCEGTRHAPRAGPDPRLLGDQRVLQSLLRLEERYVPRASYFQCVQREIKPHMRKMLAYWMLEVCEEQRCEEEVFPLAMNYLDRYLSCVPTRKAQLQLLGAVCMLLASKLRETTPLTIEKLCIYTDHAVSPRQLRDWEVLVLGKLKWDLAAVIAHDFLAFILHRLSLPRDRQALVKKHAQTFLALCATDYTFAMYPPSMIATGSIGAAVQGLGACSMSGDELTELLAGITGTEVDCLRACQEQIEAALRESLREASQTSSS

Row | CDK4 % Inhibition at 0.03 μM ([1]; at 0.03 μM) [%] | CDK2 % Inhibition at 0.03 μM (CDK2/Cyclin A; at 0.03 μM) [%] | Ki [1] [nM] | Ki (CDK2/Cyclin A) [nM] | IC50 (HCT-116 cell line; first HCT-116 column (c4)) [nM] | IC50 (HCT-116 cell line; second HCT-116 column (c5)) [nM] | SMILES | HCT-116 % Inhibition at 0.1 μM (HCT-116 cell line; HCT-116 cells, at 0.1 μM) [%] | HCT-116 5 Inhibition at 0.25 μM (HCT-116 cell line; HCT-116 cells) | further results
1 | – | – | – | – | – | – | Nc1nc(NC2CCN(C(=O)C3CCCCC3)CC2)sc1C(=O)c1c(F)cccc1F [Example Q59] | – | – | CDK4 % Inhibition at 0.03 μM ([1]; 0.03 μM compound, Table 4): 14%; CDK2 % Inhibition at 0.03 μM (CDK2/Cyclin A; 0.03 μM compound, Table 4): 10%; HCT-116 % Inhibition at 0.1 μM (HCT-116 cell line; [2]): 0%; HCT-116 % Inhibition at 0.25 μM (HCT-116 cell line; HCT-116, Table 4): 30%
2 | 46 | 25 | – | – | – | – | Nc1nc(NC2CCN(C(=O)c3cccnc3Cl)CC2)sc1C(=O)c1c(F)cccc1F [Example R18] | 0 | 45 | –
3 | – | – | – | – | – | – | CC(C)c1ccccc1NC(=O)N1CCC(Nc2nc(N)c(C(=O)c3c(F)cccc3F)s2)CC1 [Example O40] | – | – | CDK4 % Inhibition at 0.03 μM ([1]; 0.03 μM compound, Table 2): 6%; CDK2 % Inhibition At 0.03 μM (CDK2/Cyclin A; 0.03 μM compound, Table 2): 30%; HCT-116 % Inhibition at 0.25 μM (HCT-116 cell line; HCT-116, Table 2): 3%
4 | – | – | – | – | – | – | Nc1nc(NC2CCN(C(=O)c3ccc(F)c(F)c3)CC2)sc1C(=O)c1c(F)cccc1F [Example Q73] | – | – | CDK4 % Inhibition at 0.03 μM ([1]; 0.03 μM compound, Table 4): 78%; CDK2 % Inhibition at 0.03 μM (CDK2/Cyclin A; 0.03 μM compound, Table 4): 52%; HCT-116 % Inhibition at 0.1 μM (HCT-116 cell line; [2]): 3%; HCT-116 % Inhibition at 0.25 μM (HCT-116 cell line; HCT-116, Table 4): 33%
5 | – | – | 2.8 | 10 | > 5000 | > 5000 | Nc1nc(NC2CCN(S(=O)(=O)CCNCCN3CCCC3)CC2)sc1C(=O)c1c(F)cccc1F [Example K28, (4-Amino-2-{1-[2-(2-pyrrolidin-1-yl-ethylamino)-ethanesulfonyl]-piperidin-4-ylamino}-thiazol-5-yl)-(2,6-difluoro-phenyl)-methanone Trifluoroacetic Acid Salt.] | – | – | –
6 | – | – | – | – | – | – | Cc1c(S(=O)(=O)N2CCC(Nc3nc(N)c(C(=O)c4c(F)cccc4F)s3)CC2)sc2ccc(Cl)cc12 [Example P69] | – | – | CDK4 % Inhibition at 0.03 μM ([1]; 0.03 μM compound, Table 3): 21%; CDK2 % Inhibition at 0.03 μM (CDK2/Cyclin A; 0.03 μM compound, Table 3): −2%; HCT-116 % Inhibition at 0.1 μM (HCT-116 cell line; [3]): 13%; HCT-116 % Inhibition at 0.25 μM (HCT-116 cell line; HCT-116, Table 3): 30%
7 | 49 | 4 | – | – | – | – | Cc1onc(-c2ccccc2Cl)c1C(=O)N1CCC(Nc2nc(N)c(C(=O)c3c(F)cccc3F)s2)CC1 [Example R11] | 0 | 37 | –
8 | 36 | 14 | – | – | – | – | CC(Oc1ccccc1)C(=O)N1CCC(Nc2nc(N)c(C(=O)c3c(F)cccc3F)s2)CC1 (stereo not drawn) [Example R159] | 0 | 46 | –
9 | 67 | 61 | – | – | – | – | Cc1ccc(O)c(C(=O)N2CCC(Nc3nc(N)c(C(=O)c4c(F)cccc4F)s3)CC2)c1 [Example R122] | 0 | 48 | –
10 | 78 | 63 | – | – | – | – | CNc1ccc(C(=O)N2CCC(Nc3nc(N)c(C(=O)c4c(F)cccc4F)s3)CC2)cc1 [Example R147] | 0 | 41 | –
11 | 65 | 38 | – | – | – | – | Nc1nc(NC2CCN(C(=O)CSc3ccccc3)CC2)sc1C(=O)c1c(F)cccc1F [Example R32] | 0 | 48 | –
12 | – | – | – | – | – | – | COC(=O)C(=O)N1CCC(Nc2nc(N)c(C(=O)c3c(F)cccc3F)s2)CC1 [Example Q38] | – | – | CDK4 % Inhibition at 0.03 μM ([1]; 0.03 μM compound, Table 4): 16%; CDK2 % Inhibition at 0.03 μM (CDK2/Cyclin A; 0.03 μM compound, Table 4): −12%; HCT-116 % Inhibition at 0.1 μM (HCT-116 cell line; [2]): 0%; HCT-116 % Inhibition at 0.25 μM (HCT-116 cell line; HCT-116, Table 4): 21%
13 | – | – | – | – | – | – | Nc1nc(NC2CCN(S(=O)(=O)c3c(Cl)cc(C(F)(F)F)cc3Cl)CC2)sc1C(=O)c1c(F)cccc1F [Example P82] | – | – | CDK4 % Inhibition at 0.03 μM ([1]; 0.03 μM compound, Table 3): 12%; CDK2 % Inhibition at 0.03 μM (CDK2/Cyclin A; 0.03 μM compound, Table 3): −23%; HCT-116 % Inhibition at 0.1 μM (HCT-116 cell line; [3]): 17%; HCT-116 % Inhibition at 0.25 μM (HCT-116 cell line; HCT-116, Table 3): 24%
14 | – | – | – | – | – | – | Nc1nc(NC2CCN(C(=O)c3cccc([N+](=O)[O-])c3)CC2)sc1C(=O)c1c(F)cccc1F [Example Q69] | – | – | CDK4 % Inhibition at 0.03 μM ([1]; 0.03 μM compound, Table 4): 80%; CDK2 % Inhibition at 0.03 μM (CDK2/Cyclin A; 0.03 μM compound, Table 4): 54%; HCT-116 % Inhibition at 0.1 μM (HCT-116 cell line; [2]): 1%; HCT-116 % Inhibition at 0.25 μM (HCT-116 cell line; HCT-116, Table 4): 24%
15 | – | – | – | – | – | – | COc1cc(OC)cc(C(=O)N2CCC(Nc3nc(N)c(C(=O)c4c(F)cccc4F)s3)CC2)c1 [Example Q23] | – | – | CDK4 % Inhibition at 0.03 μM ([1]; 0.03 μM compound, Table 4): 56%; CDK2 % Inhibition at 0.03 μM (CDK2/Cyclin A; 0.03 μM compound, Table 4): 20%; HCT-116 % Inhibition at 0.1 μM (HCT-116 cell line; [2]): 10%; HCT-116 % Inhibition at 0.25 μM (HCT-116 cell line; HCT-116, Table 4): 42%
16 | – | – | 0.54 | 0.69 | 210 | 3200 | Nc1nc(NC2CCN(S(=O)(=O)c3ccc(N4CCNCC4)nc3)CC2)sc1C(=O)c1c(F)cccc1F [Example G6, 1-{4-Amino-2-[1-(6-piperazin-1-yl-pyridine-3-sulfonyl)-piperidin-4-ylamino]-thiazol-5-yl}-1-(2,6-difluoro-phenyl)-methanone] | – | – | –
17 | 54 | 37 | – | – | – | – | CCSc1ncccc1C(=O)N1CCC(Nc2nc(N)c(C(=O)c3c(F)cccc3F)s2)CC1 [Example R19] | 0 | 46 | –
18 | – | – | 4.7 | 6.7 | 600 | 5000 | Nc1nc(NC2CCN(S(=O)(=O)CCCN3CCOCC3)CC2)sc1C(=O)c1c(F)cccc1F [Example K12, 1-(4-Amino-2-{1-[3-(morpholin-4-yl)propane-1-sulfonyl]-piperidin-4-ylamino}-thiazol-5-yl)-1-(2,6-difluoro-phenyl)-methanone.] | – | – | –
19 | – | – | 0.25 | < 1 | > 5000 | > 5000 | N=C(N)c1ccc(S(=O)(=O)N2CCC(Nc3nc(N)c(C(=O)c4c(F)cccc4F)s3)CC2)cc1 [Example J3, 4-(4-{4-Amino-5-[1-(2,6-difluoro-phenyl)-methanoyl]-thiazol-2-ylamino}-piperidine-1-sulfonyl)-benzamidine] | – | – | –
20 | – | – | 1.2 | 0.68 | 350 | > 500 | Nc1nc(NC2CCN(S(=O)(=O)c3ccc(SCCc4ccccn4)nc3)CC2)sc1C(=O)c1c(F)cccc1F [Example L3, 1-(4-Amino-2-{1-[6-(2-pyridin-2-yl-ethylsulfanyl)-pyridine-3-sulfonyl]-piperidin-4-ylamino}-thiazol-5-yl)-1-(2,6-difluoro-phenyl)-methanone Hydrochloride.] | – | – | –
21 | – | – | – | – | – | – | Nc1nc(NC2CCN(C(=O)[C@@H]3C[C@H]3c3ccccc3)CC2)sc1C(=O)c1c(F)cccc1F (relative stereo) [Example Q55] | – | – | CDK4 % Inhibition at 0.03 μM ([1]; 0.03 μM compound, Table 4): 43%; CDK2 % Inhibition at 0.03 μM (CDK2/Cyclin A; 0.03 μM compound, Table 4): 29%; HCT-116 % Inhibition at 0.1 μM (HCT-116 cell line; [2]): 10%; HCT-116 % Inhibition at 0.25 μM (HCT-116 cell line; HCT-116, Table 4): 31%
22 | – | – | 8 | 81 | 1900 | 4000 | CC(C)S(=O)(=O)c1csc(C(=O)N2CCC(Nc3nc(N)c(C(=O)c4c(F)cccc4F)s3)CC2)c1Cl [Example C5, (4-Amino-2-{1-[3-chloro-4-(propane-2-sulfonyl)-thiophene-2-carbonyl]-piperidin-4-ylamino}-thiazol-5-yl)-(2,6-difluoro-phenyl)-methanone] | – | – | –
23 | 63 | 50 | – | – | – | – | Cc1ccc(C(=O)N2CCC(Nc3nc(N)c(C(=O)c4c(F)cccc4F)s3)CC2)cc1 [Example R154] | 0 | 27 | –
24 | – | – | 1.5 | 1 | 140 | 580 | Nc1nc(NC2CCN(S(=O)(=O)CCCN3CCc4ccccc4C3)CC2)sc1C(=O)c1c(F)cccc1F [Example K5, 1-(4-Amino-2-{1-[3-(3,4-dihydro-1H-isoquinolin-2-yl)propane-1-sulfonyl]-piperidin-4-ylamino}-thiazol-5-yl)-1-(2,6-difluoro-phenyl)-methanone.] | – | – | –
25 | – | – | 0.68 | 1.2 | 200 | 1900 | CN(C)CCCc1ccc(S(=O)(=O)N2CCC(Nc3nc(N)c(C(=O)c4c(F)cccc4F)s3)CC2)cc1 [Example I10, 1-(4-Amino-2-{1-[4-(3-dimethylamino-propyl)-benzenesulfonyl]-piperidin-4-ylamino}-thiazol-5-yl)-1-(2,6-difluoro-phenyl)-methanone D-Glucuronic Acid Salt] | – | – | –
26 | 50 | 27 | – | – | – | – | CN(C)c1cccc(C(=O)N2CCC(Nc3nc(N)c(C(=O)c4c(F)cccc4F)s3)CC2)c1 [Example R135] | 0 | 38 | –
27 | 19 | 6 | – | – | – | – | Nc1nc(NC2CCN(C(=O)c3cccnc3Oc3ccccc3)CC2)sc1C(=O)c1c(F)cccc1F [Example R27] | 0 | 43 | –
28 | – | – | 14 | 29 | 120 | 320 | COc1cc(C(=O)N2CCC(Nc3nc(N)c(C(=O)c4c(F)cccc4F)s3)CC2)ccc1C [Example D12, 1-[4-Amino-2-{1-[-(3-methoxy-4-methyl-phenyl)-methanoyl]-piperidin-4-ylamino}-thiazol-5-yl)-1-(2,6-difluoro-phenyl)-methanone Trifluoroacetic Acid Salt] | – | – | –
